Laboratory results reported in patent US11505533B2, “Metabolically stable N-acylaminooxadiazoles useful as antibacterial agents” (MICROBIOTIX, INC., priority 2017, dated 2022).
Converted amounts (≈) assume the structure as drawn.

What was measured:
E. coli TolC(−) [1] = assay: TolC(−) MIC (NB); format: cell-based; conditions: Escherichia coli, read-out: TolC(−) MIC (μM)(NB)
[2] = Aqueous solubility, nephelometry; conditions: water, kinetic from dmso stock
MRSA-1094 (MDR) = format: cell-based; conditions: Staphylococcus aureus; MRSA-1094 (MDR); read-out: MIC
[3] = test system: S. aureus ATCC 25923 (MSSA. osteomyelitis isolate); format: cell-based; conditions: Staphylococcus aureus; S. aureus ATCC 25923 (MSSA); read-out: MIC
[4] = test system: E. coli (700, TolC+) efflux pos; format: cell-based; conditions: Escherichia coli; E. coli (700, TolC+) efflux pos; read-out: MIC
[5] = Mammalian cell cytotoxicity
MRSA USA 300 (BAA-1717) = format: cell-based; conditions: Staphylococcus aureus; MRSA USA 300 (BAA-1717); read-out: MIC
[6] = Microsomal stability + NADPH; conditions: mouse liver microsomes, 0.5 hr at 37° C.
E. coli TolC(−) [7] = conditions: MIC in the presence of 10% fetal calf serum versus without
Caco-2 permeability = format: in vitro ADME; conditions: human, direction not given
Text: Res., 15(5): 726-733 (1998).

[8] = Mouse serum binding, equilibrium dialysis
N. gonorrhoeae 49226 = format: cell-based; conditions: Neisseria gonorrhoeae; N. gonorrhoeae 49226; read-out: MIC
Mouse serum stability = conditions: 5 μM, 37° C., 4 h

| SMILES | MIC (E. coli TolC(−) [1]) [µM] | solubility [2] [µM] | MIC (MRSA-1094 (MDR)) [µg/mL] | MIC [3] [µg/mL] | MIC [4] [µg/mL] | CC50 [5] [µM] | MIC (MRSA USA 300 (BAA-1717)) [µg/mL] | Microsomal Stability + NADPH % degraded [6] [%] | Fold Serum Shift vs. TolC(−) (E. coli TolC(−) [7]) [fold] | Papp (Caco-2 permeability) [×10⁻⁶ cm/s] | fraction unbound [8] | MIC (N. gonorrhoeae 49226) [µg/mL] | Serum Stability (% remain) (Mouse serum stability) [%] |
| --- | --- | --- | --- | --- | --- | --- | --- | --- | --- | --- | --- | --- | --- |
| CC(C)(C)COc1ccc(C(=O)Nc2nnc(-c3ccc(F)cc3)o2)cc1 [compound 4284] | 70.7 (≈ 26.1 µg/mL) | 3.12 (≈ 1.15 µg/mL) | – | – | – | – | – | – | – | – | – | – | – |
| CCN(c1ccccc1)c1ccc(C(=O)Nc2nnc(-c3ccc(F)cc3)o2)cc1 [compound 4285] | 2.48 (≈ 0.998 µg/mL) | 3.12 (≈ 1.26 µg/mL) | 2.52 (≈ 6.26 µM) | 6.34 (≈ 15.8 µM) | > 40 | 59.9 | 0.63 (≈ 1.57 µM) | – | – | – | – | – | – |
| CC(C)(C)OC(=O)N1CC(Oc2ccc(C(=O)Nc3nnc(-c4ccc(F)cc4)o3)cc2)C1 [compound 4288] | 3.51 (≈ 1.59 µg/mL) | 25 (≈ 11.4 µg/mL) | 5.68 (≈ 12.5 µM) | 7.16 (≈ 15.8 µM) | > 45 | 6.6 | 2.01 (≈ 4.42 µM) | – | – | – | – | – | – |
| O=C(Nc1nnc(-c2ccc(F)cc2)o1)c1ccc(Oc2cccc(O)c2)cc1 [compound 4304] | 3.51 (≈ 1.37 µg/mL) | 50 (≈ 19.6 µg/mL) | – | – | – | > 100 | – | 85 | 28.5 | 13.7 | < 0.01 | – | – |
| Cc1ccc(Oc2ccc(C(=O)Nc3nnc(-c4ccc(F)cc4)o3)cc2)cc1 [compound 4305] | 0.781 (≈ 0.304 µg/mL) | 3.13 (≈ 1.22 µg/mL) | – | – | – | 32 | – | <30 | – | – | – | – | – |
| Cc1cccc(Oc2ccc(C(=O)Nc3nnc(-c4ccc(F)cc4)o3)cc2)c1 [compound 4306] | 0.984 (≈ 0.383 µg/mL) | 6.25 (≈ 2.43 µg/mL) | – | – | – | > 100 | – | <30 | – | – | – | – | – |
| Cc1ccccc1Oc1ccc(C(=O)Nc2nnc(-c3ccc(F)cc3)o2)cc1 [compound 4307] | 1.56 (≈ 0.608 µg/mL) | 12.5 (≈ 4.87 µg/mL) | – | – | – | 65 | – | <30 | – | – | – | – | – |
| Cc1cc(C)cc(Oc2ccc(C(=O)Nc3nnc(-c4ccc(F)cc4)o3)cc2)c1 [compound 4308] | 1.56 (≈ 0.63 µg/mL) | 3.13 (≈ 1.26 µg/mL) | – | – | – | 32 | – | <30 | – | – | – | – | – |
| COc1cccc(Oc2ccc(C(=O)Nc3nnc(-c4ccc(F)cc4)o3)cc2)c1 [compound 4309] | 0.984 (≈ 0.399 µg/mL) | 6.25 (≈ 2.53 µg/mL) | – | – | – | > 100 | – | <30 | – | – | – | – | – |
| COc1ccc(Oc2ccc(C(=O)Nc3nnc(-c4ccc(F)cc4)o3)cc2)cc1 [compound 4310] | 0.781 (≈ 0.317 µg/mL) | 6.25 (≈ 2.53 µg/mL) | – | – | – | > 100 | – | <30 | – | – | – | – | – |
| O=C(Nc1nnc(-c2ccc(F)cc2)o1)N1Cc2ccccc2C1 [compound 4330] | 6.25 (≈ 2.03 µg/mL) | 3.13 (≈ 1.02 µg/mL) | 2.03 (≈ 6.26 µM) | ≥ 32 | > 32 | > 100 | 1.01 (≈ 3.11 µM) | 43.5 | – | – | – | 0.16 (≈ 0.493 µM) | – |
| O=C(Nc1nnc(-c2ccc(F)cc2)o1)N1CCc2cc(F)ccc2C1 [compound 4331] | 3.12 (≈ 1.11 µg/mL) | 12.5 (≈ 4.45 µg/mL) | 3.15 (≈ 8.84 µM) | 4.45 (≈ 12.5 µM) | > 35 | 34 | – | <30 | – | – | – | 0.089 (≈ 0.25 µM) | – |
| O=C(Nc1nnc(-c2ccc(F)cc2)o1)N1CCc2ccc(F)cc2C1 [compound 4332] | 3.12 (≈ 1.11 µg/mL) | 3.13 (≈ 1.12 µg/mL) | 5 (≈ 14 µM) | 7.07 (≈ 19.8 µM) | > 35 | 14.4 | – | <30 | – | – | – | 0.089 (≈ 0.25 µM) | – |
| C=CCN(C)C(=O)Nc1nnc(-c2ccc(F)cc2)o1 [compound 4345] | 25 (≈ 6.91 µg/mL) | – | 19.5 (≈ 70.7 µM) | 27.6 (≈ 99.9 µM) | > 27 | – | – | – | – | – | – | – | – |
| O=C(Nc1nnc(-c2ccc(F)cc2)o1)N1CC=C(C(F)(F)F)CC1 [compound 4347] | 2.48 (≈ 0.884 µg/mL) | 3.1 (≈ 1.1 µg/mL) | 2.23 (≈ 6.26 µM) | > 35 | > 27 | > 100 | – | <30 | – | 21.8 | < 0.01 | 0.089 (≈ 0.25 µM) | 93 |
| COC(=O)C1=CCN(C(=O)Nc2nnc(-c3ccc(F)cc3)o2)CC1 [compound 4348] | 12.5 (≈ 4.33 µg/mL) | 25 (≈ 8.66 µg/mL) | – | – | – | > 100 | – | – | – | – | – | – | – |
| CC(Oc1ccc(C(=O)Nc2nnc(-c3ccc(F)cc3)o2)cc1)c1ccccc1 (stereo not shown) [compound 4357] | 1.56 (≈ 0.63 µg/mL) | 3.1 (≈ 1.25 µg/mL) | – | – | – | 45 | – | – | – | – | – | – | – |
| CC1=CCN(C(=O)Nc2nnc(-c3ccc(F)cc3)o2)CC1 [compound 4366] | 6.25 (≈ 1.89 µg/mL) | 25 (≈ 7.56 µg/mL) | – | – | – | 46 | – | 45 | 4 | 67.3 | 0.051 | – | 95 |
| O=C(Nc1nnc(-c2ccc(F)cc2)o1)N1CCN(c2ncccn2)CC1 [compound 4465] | 6.25 (≈ 2.31 µg/mL) | 12.5 (≈ 4.62 µg/mL) | – | – | – | > 100 | – | – | – | – | – | – | – |
| O=C(Nc1nnc(C2CCCC2)o1)c1ccc(Oc2ccccc2)nc1 [compound 4470] | 7.02 (≈ 2.46 µg/mL) | 100 (≈ 35 µg/mL) | – | – | – | > 100 | – | 2 | 7.1 | – | 0.022 | – | – |
| Cc1ccccc1-c1nnc(NC(=O)c2ccc(Oc3ccccc3)nc2)o1 [compound 4498] | 2.21 (≈ 0.823 µg/mL) | – | – | – | – | > 100 | – | – | – | – | – | – | – |
